Molecules are shown by their SMILES.

This experiment deals with T1, APOL1 (Homo sapiens, UniProt O14791).
T1 sequence (O14791 1-398 S342G/I384M): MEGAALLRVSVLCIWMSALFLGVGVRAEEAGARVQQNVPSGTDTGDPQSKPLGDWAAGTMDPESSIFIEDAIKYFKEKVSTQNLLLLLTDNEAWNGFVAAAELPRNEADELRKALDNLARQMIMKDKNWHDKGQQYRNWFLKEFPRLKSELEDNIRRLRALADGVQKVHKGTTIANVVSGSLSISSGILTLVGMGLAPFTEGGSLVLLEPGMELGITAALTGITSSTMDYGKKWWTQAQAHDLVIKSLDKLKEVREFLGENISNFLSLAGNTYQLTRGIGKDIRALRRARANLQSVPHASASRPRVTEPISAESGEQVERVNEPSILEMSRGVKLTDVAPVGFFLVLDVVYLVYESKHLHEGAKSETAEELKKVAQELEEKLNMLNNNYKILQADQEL
In words: MultiTox-Fluor Multiplex Cytotoxicity Assay in tet-inducible APOL1 T-REx-HEK293 cells (cell rescue, ratio of dead to live cells). It is filed as cell-based. The conditions noted are these: tet-inducible transgenic APOL1 T-REx-HEK293 cell lines, 50 ng/mL tet, 24 hours; read-out: IP50 (i.e., IC50 for cell proliferation). In short, it runs like this: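 T-REx-HEK293 cells with tet-inducible APOL1 were treated with compound (10 μM top, 10-point 3-fold dilution, duplicate) plus 50 ng/mL tetracycline for 24 h at 37° C, in DMEM with 2% tet-free FBS. MultiTox-Fluor protease signals gave a dead/live ratio, normalized to no tet (100% viability) and tet alone (0%).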
With `C[C@H]1C[C@@]2(CCN1Cc1ccc(OCCO)cc1)OCCc1cc(Cl)sc12` [Compound 644], the IC50 was less than 100 nM.

In the case of `C[C@H]1C[C@@]2(CCN1Cc1ccncc1)OCCc1cc(Cl)sc12` [Compound 645], the IC50 lay within 100 to 500 nM. Take `C[C@H]1C[C@@]2(CCN1Cc1cccc(OCCO)c1)OCCc1cc(Cl)sc12` [Compound 646]: the IC50 is less than 100 nM. Turning to `C[C@H]1C[C@@]2(CCN1Cc1ccc(N3CCCC3=O)cc1)OCCc1cc(Cl)sc12` [Compound 647], the IC50 was less than 100 nM. With `C[C@H]1C[C@@]2(CCN1Cc1ccc(OCC(=O)N3CCOCC3)cc1)OCCc1cc(Cl)sc12` [Compound 648], the IC50 is less than 100 nM.

As for `Cc1cncc(CN2CC[C@]3(C[C@@H]2C)OCCc2cc(Cl)sc23)c1` [Compound 649], the IC50 is 100 to 500 nM. Regarding `C[C@H]1C[C@@]2(CCN1Cc1cn(-c3ncccn3)cn1)OCCc1cc(Cl)sc12` [Compound 650], the IC50 was 100 to 500 nM.

As to `COc1ncc(CN2CC[C@]3(C[C@@H]2C)OCCc2cc(Cl)sc23)cn1` [Compound 651], the IC50 is less than 100 nM.

In the case of `CNC(=O)c1cccc(CN2CC[C@]3(C[C@@H]2C)OCCc2cc(Cl)sc23)c1` [Compound 652], the IC50 fell in the range of 100 to 500 nM. Consider `CCc1ncc(CN2CC[C@]3(C[C@@H]2C)OCCc2cc(Cl)sc23)cn1` [Compound 653], for which the IC50 fell in the range of 100 to 500 nM. In the case of `C[C@H]1C[C@@]2(CCN1Cc1ccc(S(C)(=O)=O)cc1)OCCc1cc(Cl)sc12` [Compound 654], the IC50 lay in the range of 100 to 500 nM. Regarding `COc1cc(OCC(N)=O)ccc1CN1CC[C@@]2(C[C@H]1C)OCCc1cc(Cl)sc12` [Compound 655], the IC50 is less than 100 nM. `C[C@H]1C[C@@]2(CCN1Cc1cccc(OCC(N)=O)c1)OCCc1cc(Cl)sc12` [Compound 656]: the IC50 was in the range of 100 to 500 nM. The figure for `COc1ccc(CN2CC[C@]3(C[C@@H]2C)OCCc2cc(Cl)sc23)cc1OCC(N)=O` [Compound 657] is less than 100 nM. Then `C[C@H]1C[C@@]2(CCN1Cc1cnc(N3CCOCC3)nc1)OCCc1cc(Cl)sc12` [Compound 658], with less than 100 nM; and `C[C@H]1C[C@@]2(CCN1Cc1ccc(C(=O)N(C)C)cc1)OCCc1cc(Cl)sc12` [Compound 660], with 100 to 500 nM. For the compound `COc1ccc(CN2CC[C@]3(C[C@@H]2C)OCCc2cc(Cl)sc23)cn1` [Compound 662], the IC50 was less than 100 nM. The figure for `COc1cc(CN2CC[C@]3(C[C@@H]2C)OCCc2cc(Cl)sc23)ccc1OCC(N)=O` [Compound 663] is less than 100 nM; for `C[C@H]1C[C@@]2(CCN1Cc1ccc3c(c1)n(C)c(=O)n3C)OCCc1cc(Cl)sc12` [Compound 664] it is less than 100 nM; for `C[C@H]1C[C@@]2(CCN1Cc1ccc(F)cn1)OCCc1cc(Cl)sc12` [Compound 665] it is 100 to 500 nM. For the compound `C[C@H]1C[C@@]2(CCN1Cc1cnccn1)OCCc1cc(Cl)sc12` [Compound 666], the IC50 fell in the range of 100 to 500 nM. On to `C[C@H]1C[C@@]2(CCN1Cc1ccc(C#N)nc1)OCCc1cc(Cl)sc12` [Compound 667], for which the IC50 is 100 to 500 nM. On to `C[C@H]1C[C@@]2(CCN1Cc1ccccn1)OCCc1cc(Cl)sc12` [Compound 668], for which the IC50 was in the range of 500 to 1000 nM. Regarding `C[C@H]1C[C@@]2(CCN1Cc1ccc(S(C)(=O)=O)c(F)c1)OCCc1cc(Cl)sc12` [Compound 669], the IC50 is 100 to 500 nM. Then `C[C@H]1C[C@@]2(CCN1CC1CCN(S(C)(=O)=O)CC1)OCCc1cc(Cl)sc12` [Compound 670], with 100 to 500 nM. The figure for `Cc1nccn1-c1ccc(CN2CC[C@]3(C[C@@H]2C)OCCc2cc(Cl)sc23)cc1` [Compound 671] is less than 100 nM. Take `C[C@H]1C[C@@]2(CCN1Cc1ccc(F)cc1)OCCc1cc(Cl)sc12` [Compound 672]: the IC50 is 100 to 500 nM. Then `C[C@H]1C[C@@]2(CCN1CCC1CCOCC1)OCCc1cc(Cl)sc12` [Compound 673], with 500 to 1000 nM. `Cc1ncccc1CN1CC[C@]2(C[C@@H]1C)OCCc1cc(Cl)sc12` [Compound 674]: the IC50 is 500 to 1000 nM. As for `Cc1ccc(CN2CC[C@]3(C[C@@H]2C)OCCc2cc(Cl)sc23)c(C)n1` [Compound 675], the IC50 is 100 to 500 nM. As for `C[C@H]1C[C@@]2(CCN1CC1(C)COC1)OCCc1cc(Cl)sc12` [Compound 676], the IC50 fell in the range of 100 to 500 nM. Turning to `Cc1cncc(N2CCC(CN3CC[C@]4(C[C@@H]3C)OCCc3cc(Cl)sc34)CC2)n1` [Compound 677], the IC50 was 500 to 1000 nM. As for `C[C@H]1C[C@@]2(CCN1Cc1ccncc1F)OCCc1cc(Cl)sc12` [Compound 678], the IC50 was in the range of 500 to 1000 nM.

On to `C[C@H]1C[C@@]2(CCN1Cc1cn3c(n1)CCC3)OCCc1cc(Cl)sc12` [Compound 679], for which the IC50 is 500 to 1000 nM. For `Cc1cccc(CN2CC[C@]3(C[C@@H]2C)OCCc2cc(Cl)sc23)n1` [Compound 680], the IC50 was 500 to 1000 nM. For the compound `C[C@H]1C[C@@]2(CCN1Cc1ccnn1C)OCCc1cc(Cl)sc12` [Compound 681], the IC50 was 500 to 1000 nM.

On to `C[C@H]1C[C@@]2(CCN1Cc1ccccc1F)OCCc1cc(Cl)sc12` [Compound 682], for which the IC50 fell in the range of 100 to 500 nM.

For the compound `Cc1ncc(CN2CC[C@]3(C[C@@H]2C)OCCc2cc(Cl)sc23)n1C` [Compound 683], the IC50 lay within 500 to 1000 nM. For `C[C@H]1C[C@@]2(CCN1Cc1ncccc1F)OCCc1cc(Cl)sc12` [Compound 684], the IC50 was in the range of 500 to 1000 nM. In the case of `C[C@H]1C[C@@]2(CCN1CC1CCOCC1)OCCc1cc(Cl)sc12` [Compound 685], the IC50 lay in the range of 500 to 1000 nM. As for `C[C@H]1C[C@@]2(CCN1Cc1ncn3ccccc13)OCCc1cc(Cl)sc12` [Compound 686], the IC50 lay in the range of 500 to 1000 nM.

Turning to `C[C@H]1C[C@@]2(CCN1Cc1cccc(F)c1O)OCCc1cc(Cl)sc12` [Compound 687], the IC50 was 500 to 1000 nM.

Take `C[C@H]1C[C@@]2(CCN1Cc1cccc(F)c1)OCCc1cc(Cl)sc12` [Compound 688]: the IC50 lay within 500 to 1000 nM.

On to `COc1cccc(CN2CC[C@]3(C[C@@H]2C)OCCc2cc(Cl)sc23)n1` [Compound 689], for which the IC50 fell in the range of 500 to 1000 nM. Turning to `C[C@H]1C[C@@]2(CCN1Cc1cccc(Cl)c1O)OCCc1cc(Cl)sc12` [Compound 690], the IC50 lay in the range of 500 to 1000 nM. The figure for `Cc1cnccc1CN1CC[C@]2(C[C@@H]1C)OCCc1cc(Cl)sc12` [Compound 693] is 500 to 1000 nM.

For `C#CC(C)N1CC[C@]2(C[C@@H]1C)OCCc1cc(Cl)sc12` (stereo partly drawn) [Compound 694, (2′S, 7R)-2-chloro-2′-methyl-1′-(1-methylprop-2-ynyl)spiro[4,5-dihydrothieno[2,3-c]pyran-7,4′-piperidine]], the IC50 was 500 to 1000 nM. As for `C[C@H]1C[C@]2(CCN1Cc1cn(CCS(C)(=O)=O)nn1)OCCc1cc(Cl)sc12` [Compound 695, (2′S,7S)-2-chloro-2′-methyl-1′-[[1-(2-methylsulfonylethyl)triazol-4-yl]methyl]spiro[4,5-dihydrothieno[2,3-c]pyran-7,4′-piperidine]], the IC50 was in the range of 500 to 1000 nM. Take `C[C@H]1C[C@@]2(CCN1Cc1cn(CCS(C)(=O)=O)nn1)OCCc1cc(Cl)sc12` [Compound 696, (2′S, 7R)-2-chloro-2′-methyl-1′-[[1-(2-methylsulfonylethyl)triazol-4-yl]methyl]spiro[4,5-dihydrothieno[2,3-c]pyran-7,4-piperidine]]: the IC50 is 100 to 500 nM. As for `C[C@H]1C[C@@]2(CCN1Cc1cnn(CCS(C)(=O)=O)c1)OCCc1cc(Cl)sc12` [Compound 697, (2′S, 7R)-2-chloro-2′-methyl-1′-[[1-(2-methylsulfonylethyl)pyrazol-4-yl]methyl]spiro[4,5-dihydrothieno[2,3-c]pyran-7,4′-piperidine]], the IC50 was less than 100 nM. The figure for `C[C@H]1C[C@@]2(CCN1Cc1cn[nH]c1)OCCc1cc(Cl)sc12` [Compound 698, (2′S, 7R)-2-chloro-2′-methyl-1′-(1H-pyrazol-4-ylmethyl)spiro[4,5-dihydrothieno[2,3-c]pyran-7,4′-piperidine]] is less than 100 nM; for `COCCn1cc(CN2CC[C@]3(C[C@@H]2C)OCCc2cc(Cl)sc23)cn1` [Compound 699, (2S,7R)-2′-chloro-1-((1-(2-methoxyethyl)-1H-pyrazol-4-yl)methyl)-2-methyl-4′,5′-dihydrospiro[piperidine-4,7′-thieno[2,3-c]pyran]] it is less than 100 nM; for `C[C@H]1C[C@@]2(CCN1Cc1cnn(CC(=O)N(C)C)c1)OCCc1cc(Cl)sc12` [Compound 700] it is less than 100 nM.

On to `C[C@H]1C[C@@]2(CCN1Cc1cnn(Cc3cccnc3)c1)OCCc1cc(Cl)sc12` [Compound 701], for which the IC50 was less than 100 nM. The figure for `CCn1cc(CN2CC[C@]3(C[C@@H]2C)OCCc2cc(Cl)sc23)cn1` [Compound 702] is less than 100 nM. Turning to `CNC(=O)Cn1cc(CN2CC[C@]3(C[C@@H]2C)OCCc2cc(Cl)sc23)cn1` [Compound 703], the IC50 is less than 100 nM. As to `CC(C)Cn1cc(CN2CC[C@]3(C[C@@H]2C)OCCc2cc(Cl)sc23)cn1` [Compound 704], the IC50 lay in the range of 100 to 500 nM.

Regarding `C[C@H]1C[C@@]2(CCN1Cc1cnn(CC(N)=O)c1)OCCc1cc(Cl)sc12` [Compound 705], the IC50 fell in the range of 100 to 500 nM. On to `C[C@H]1C[C@@]2(CCN1Cc1cnn(CC3CCOCC3)c1)OCCc1cc(Cl)sc12` [Compound 706], for which the IC50 is less than 100 nM. Then `C[C@H]1C[C@@]2(CCN1Cc1cnn(Cc3ccc(F)cc3)c1)OCCc1cc(Cl)sc12` [Compound 707], with less than 100 nM.

The record behind these values is patent US20250171459A1, “2-METHYL-4',5'-DIHYDROSPIRO[PIPERIDINE-4,7'-THIENO[2,3-C]PYRAN] DERIVATIVES AS INHIBITORS OF APOL1 AND METHODS OF USING SAME” (Vertex Pharmaceuticals Incorporated, priority 2022, published 2025).
